The target of assay [1] is muscarinic cholinergic receptor. Type of assay: binding, rat. Particulars: rat cerebral cortex, ^3 H-QNB 0.25 nM, 25° C., 120 minutes, pH 7.4.
Assay [2] shares this target. The assay is described as follows: [^3 H]-Cis-methyldioxolane (^3 H-CD) Binding Assay (High Affinity). Particulars: rat cerebral cortex, ^3 H-CD 1.0 nM, 25° C., 120 minutes, pH 7.4; high affinity agonist binding.

The results in this text go back to US5637731A (priority 1996, dated 1997).

Counter-ions that a name gives are not always drawn. Like-named read-outs stand apart in the source and are kept apart here.

Turning to `CC(C)C(=O)O[C@@H]1CCN(CC#CCN(C)C)C1=O` [(R)-Porpanoic acid 2-methyl-1-[4-(dimethylamino)-2-butynyl]-2-oxo-3-pyrrolidinyl ester], the Ki was found to be 711 µM in assay [1] and 26 µM in assay [2].

As to `CNC(=O)O[C@H]1CCN(CC#CCN2CCCC2)C1=O` [(S)-3-[[Methylamino)carbonyl]oxy]-1-[4-(1-pyrrolidinyl)-2-butynyl]-2-pyrrolidinone], the Ki in assay [1] is 433 µM; in assay [2], above 100 µM.

Turning to `CN(C)CC#CCN1CC[C@H](O)C1=O` [(S)-1-[4-(Dimethylamino)-2-butynyl]-3-hydroxy-2-pyrrolidinone], the Ki in assay [1] was determined as 26.9 µM; in assay [2] it was 0.043 µM.

On to `CCCCCCCCOC(=O)O[C@H]1CCN(CC#CC[N+](C)(C)C)C1=O` [(S)-N,N, N-Trimethyl-4-[3-[[(octyloxy)carbonyl]oxy]-2-oxo-1-pyrrolidinyl]-2-butyn-1-aminium iodide], for which the Ki was found to be 0.1 µM in assay [1] and 0.013 µM in assay [2].

Consider `N[C@@H]1CCN(CC#CCN2CCCC2)C1=O` [(R)-3-Amino-1-[4-(1-pyrrolidinyl)-2-butynyl]-2-pyrrolidinone dihydrochloride], for which the values for the inhibition constant Ki in assay [1] and in assay [2] were 6.1 µM and 0.35 µM, respectively.

Regarding `CC(=O)O[C@@H]1CCN(CC#CCN2CCC[C@@H]2CO[Si](C)(C)C(C)(C)C)C1=O` [[R-(R*,R*)]-3-Acetyloxy)-1-[4-[2-[[[(1,1-dimethylethyl)-dimethylsilyl]oxy]methyl]-1-pyrrolidinyl]-2-butynyl]-2-pyrrolidinone], the Ki is above 100 µM in assay [1] and 10.1 µM in assay [2].

For the compound `CC1CCN(CC#CCN2CCC(O[Si](C)(C)C(C)(C)C)C2)C1=O` (stereo not drawn) [[R-(R*,R* and R*,S*)]-1-[4-[3[[(1,1-dimethylethyl)-dimethylsilyl]oxy]-1-pyrrolidinyl-2-butynyl]-3-methyl-2-pyrrolidinone], the Ki in assay [1] and in assay [2] was above 100 µM in each case.

`CN(C)CC#CCN` [N,N-Dimethyl-2-butyne-1,4-diamine dihydrochloride]: the figures for the Ki in assay [1] and in assay [2] were above 100 µM and 20.5 µM, respectively.

As to `CC(C)(C)[Si](C)(C)O[C@@H]1CCN(CC#CCn2ccnc2)C1=O` [(R)-3-[[(1,1-Dimethylethyl)-dimethylsilyl]oxy]-1-[4-(1H-imidazol-1-yl)-2-butynyl]-2-pyrrolidinone], the Ki is above 100 µM in assay [1] and 14 µM in assay [2].

For `CC(C)(C)[Si](C)(C)O[C@H]1CCN(CC#CCN2CCCC2)C1=O` [(S)-3-[[(1,1-Dimethylethyl)-dimethylsily]0xy]-1-[4-(1-pyrrolidinyl)-2-butynyl]-2-pyrrolidinone], the Ki in assay [1] came to 2.7 µM; in assay [2] it was 3 µM.

In the case of `CCCCCCCCCC(=O)O[C@H]1CCN(CC#CC[N+](C)(C)C)C1=O` [(S)-N,N, N-Trimethyl-4-[2-oxo-3-[(1-oxodecyl)oxy]-1-pyrrolidinyl-2-butyn-1-aminium iodide], the Ki in assay [1] came to 0.003 µM; in assay [2], 0.156 µM.

With `CC(C)(C)[Si](C)(C)OC[C@H]1CCCN1CC#CCN1CC[C@@H](O)C1=O` [[R-(R*,R*)]-1-[4-[2-[[[(1,1-Dimethylethyl)dimethylsilyl]-oxy]methyl]-1-pyrrolidinyl]-2-butynyl]-3-hydroxy-2-pyrrolidinone], the Ki in assay [1] was above 100 µM; in assay [2], 4.2 µM.

With `CC1CCN(CC#CCN2CCC2)C1=O` (racemic) [Racemic 1-[4-(1-azetidinyl)-2-butynyl-3-methyl-2-pyrrolidinone, Racemic 1-[4-(1-azetidinyl)-2-butynyl]-3-methyl-2-pyrrolidinone], the Ki in assay [1] is 2 µM; in assay [2], 0.054 µM.

Consider `CC(C)(C)C(=O)O[C@H]1CCN(CC#CC[N+](C)(C)C)C1=O` [(S)-4-[3-(2,2-Dimethyl-1-oxopropoxy)-2-oxo-1-pyrrolidinyl]-N,N, N-trimethyl-2-butyn-1-aminium iodide], for which the Ki in assay [1] is 478 µM; in assay [2], 7.8 µM.
